assay: physchem; settings: octanol/buffer

Going from Cc1cc(Cl)c(OCCOc2ccc(N3C(=O)CNC[C@@H]3C(=O)N(Cc3cccc(Cl)c3Cl)C3CC3)cc2)c(Cl)c1 to Cc1cc(Cl)c(OCCOc2ccc(N3C(=O)CNC[C@@H]3C(=O)N(Cc3ccccc3Cl)C3CC3)cc2)c(Cl)c1, the logP falls from 6.42 to 5.83.

First: O=C(OCc1ccc(N2C(=O)CNC[C@@H]2C(=O)N(Cc2cc(CNC(=O)C3CC3)ccc2Cl)C2CC2)cc1)c1ccccc1
Second: CCNCc1ccc(Cl)c(CN(C(=O)[C@H]2CNCC(=O)N2c2ccc(COC(=O)c3ccccc3)cc2)C2CC2)c1
The logP of the first is lower: 4.54 for the first, 4.89 for the second.

Compared with Cc1cc(Cl)c(OCCOc2ccc(N3C(=O)CNC[C@@H]3C(=O)N(Cc3cc(CNC(=O)C4CC4)ccc3Cl)C3CC3)cc2)c(Cl)c1, Cc1cc(Cl)c(OCCOc2ccc(N3C(=O)CNC[C@@H]3C(=O)N(Cc3cc(CNC4CC4)ccc3Cl)C3CC3)cc2)c(Cl)c1 is higher in logP: 5.65 for the first, 6.3 for the second.

Going from COCCCc1ccc(Cl)c(CN(C(=O)[C@H]2CNCC(=O)N2c2ccc(OCCCOCc3ccccc3OC)cc2)C2CC2)c1 to CCNCc1ccc(Cl)c(CN(C(=O)[C@H]2CNCC(=O)N2c2ccc(OCCCOCc3ccccc3OC)cc2)C2CC2)c1, the logP falls from 5.72 to 5.22.

Cc1cccc(CN(C(=O)[C@H]2CNCC(=O)N2c2ccc(CCCOc3cccc(Cl)c3)cc2)C2CC2)c1C and CNCc1ccc(Cl)c(CN(C(=O)[C@H]2CNCC(=O)N2c2ccc(CCCOc3cccc(Cl)c3)cc2)C2CC2)c1 are within 0.2 log units of each other in logP: 5.91 for the first, 5.72 for the second.

Going from CNC(=O)OCCc1ccc(Cl)c(CN(C(=O)[C@H]2CNCC(=O)N2c2ccc(OCCCOCc3ccccc3)cc2)C2CC2)c1 to CNC(=O)CCc1ccc(Cl)c(CN(C(=O)[C@H]2CNCC(=O)N2c2ccc(OCCCOCc3ccccc3)cc2)C2CC2)c1, the logP falls from 4.94 to 4.62.

Compared with CNC(=O)Cc1ccc(Cl)c(CN(C(=O)[C@H]2CNCC(=O)N2c2ccc(OCCOc3c(Cl)cc(C)cc3Cl)cc2)C2CC2)c1, CCNC(=O)Cc1ccc(Cl)c(CN(C(=O)[C@H]2CNCC(=O)N2c2ccc(OCCOc3c(Cl)cc(C)cc3Cl)cc2)C2CC2)c1 is higher in logP: 5.26 for the first, 5.6 for the second.

Going from CC(C)(C)OCC(=O)NCCc1ccc(Cl)c(CN(C(=O)[C@H]2CNCC(=O)N2c2ccc(CCCOc3cccc(Cl)c3)cc2)C2CC2)c1 to COC(=O)NCCc1ccc(Cl)c(CN(C(=O)[C@H]2CNCC(=O)N2c2ccc(CCCOc3cccc(Cl)c3)cc2)C2CC2)c1, the logP falls from 6.46 to 5.74.

First: CNC(=O)Cc1ccc(Cl)c(CN(C(=O)[C@H]2CNCC(=O)N2c2ccc(COC(=O)c3ccccc3)cc2)C2CC2)c1
Second: CNC(=O)OCCc1ccc(Cl)c(CN(C(=O)[C@H]2CNCC(=O)N2c2ccc(COC(=O)c3ccccc3)cc2)C2CC2)c1
The logP of the first is lower: 4.15 for the first, 4.57 for the second.

First: CCNCCc1ccc(Cl)c(CN(C(=O)[C@H]2CNCC(=O)N2c2ccc(COC(=O)c3ccccc3)cc2)C2CC2)c1
Second: O=C(OCc1ccc(N2C(=O)CNC[C@@H]2C(=O)N(Cc2cccc(Cl)c2Cl)C2CC2)cc1)c1ccccc1
The logP of the first is lower: 4.98 for the first, 5.32 for the second.

First: COc1ccccc1COCCCOc1ncc(N2C(=O)CNC[C@@H]2C(=O)N(Cc2cccc(Cl)c2)C2CC2)cn1
Second: COc1ccccc1COCCCOc1ncc(N2C(=O)CNC[C@@H]2C(=O)N(Cc2cccc(OC)c2C)C2CC2)cn1
The logP of the first is higher: 3.09 for the first, 2.71 for the second.

First: COc1ccccc1COCCCOc1ccc(N2C(=O)CNC[C@@H]2C(=O)N(Cc2cc(CCNC(C)=O)ccc2Cl)C2CC2)cc1
Second: COC(=O)NCc1ccc(Cl)c(CN(C(=O)[C@H]2CNCC(=O)N2c2ccc(OCCCOCc3ccccc3OC)cc2)C2CC2)c1
The logP of the first is lower: 4.61 for the first, 4.81 for the second.

Going from COCCCc1cc(CN(C(=O)[C@H]2CNCC(=O)N2c2ccc(OCCOc3c(Cl)cc(C)cc3Cl)nc2)C2CC2)c(Cl)cn1 to COCCCc1cc(CN(C(=O)[C@H]2CNCC(=O)N2c2ccc(OCCOc3c(Cl)cc(C)cc3Cl)cc2)C2CC2)c(Cl)cn1, the logP rises from 4.39 to 5.22.

COCCCc1cc(CN(C(=O)[C@H]2CNCC(=O)N2c2ccc(CCCOc3c(F)ccc(F)c3F)cc2)C2CC2)c(Cl)c[n+]1[O-] and COC(=O)NCc1ccc(Cl)c(CN(C(=O)[C@H]2CNCC(=O)N2c2ccc(CCCOc3c(F)ccc(F)c3F)cc2)C2CC2)c1 are within 0.2 log units of each other in logP: 5.33 for the first, 5.48 for the second.

COc1ccccc1COCCCOc1ccc(N2C(=O)CNC[C@@H]2C(=O)N(Cc2cc(CNC3CC3)ccc2Cl)C2CC2)cc1 and COc1ccccc1COCCCOc1ccc(N2C(=O)CNC[C@@H]2C(=O)N(Cc2cccc(Cl)c2Cl)C2CC2)cc1 are within 0.2 log units of each other in logP: 5.53 for the first, 5.65 for the second.

Going from CC(=O)NCc1ccc(Cl)c(CN(C(=O)[C@H]2CNCC(=O)N2c2ccc(CCCOc3cccc(Cl)c3)cc2)C2CC2)c1 to COCCc1ccc(Cl)c(CN(C(=O)[C@H]2CNCC(=O)N2c2ccc(CCCOc3cccc(Cl)c3)cc2)C2CC2)c1, the logP rises from 5.37 to 6.12.

First: COCCCc1cc(CN(C(=O)[C@H]2CNCC(=O)N2c2ccc(OCCOc3c(Cl)cc(C)cc3Cl)cc2)C2CC2)c(Cl)c[n+]1[O-]
Second: CNCCc1ccc(Cl)c(CN(C(=O)[C@H]2CNCC(=O)N2c2ccc(OCCOc3c(Cl)cc(C)cc3Cl)cc2)C2CC2)c1
The logP of the first is lower: 5.43 for the first, 5.74 for the second.

Going from CCNCCc1ccc(Cl)c(CN(C(=O)[C@H]2CNCC(=O)N2c2ccc(OCCOc3c(Cl)cc(C)cc3Cl)cc2)C2CC2)c1 to Cc1cc(Cl)c(OCCOc2ccc(N3C(=O)CNC[C@@H]3C(=O)N(Cc3cc(CNCCF)ccc3Cl)C3CC3)cc2)c(Cl)c1, the logP falls from 6.08 to 5.77.

Cc1cc(Cl)c(OCCOc2ccc(N3C(=O)CNC[C@@H]3C(=O)N(Cc3cc(CCNCC(F)F)ccc3Cl)C3CC3)cn2)c(Cl)c1 and CCNCCc1ccc(Cl)c(CN(C(=O)[C@H]2CNCC(=O)N2c2ccc(OCCOc3c(Cl)cc(C)cc3Cl)nc2)C2CC2)c1 are within 0.2 log units of each other in logP: 5.33 for the first, 5.25 for the second.

Compared with O=C([C@H]1CNCC(=O)N1c1ccc(OCCCOCc2ccccc2)cc1)N(Cc1cc(CNCCF)ccc1Cl)C1CC1, O=C([C@H]1CNCC(=O)N1c1ccc(OCCCOCc2ccccc2)cc1)N(Cc1cc(CNCC(F)F)ccc1Cl)C1CC1 is higher in logP: 5.04 for the first, 5.34 for the second.

COc1ccccc1COCCCOc1ccc(N2C(=O)CNC[C@@H]2C(=O)NCc2ccccc2)cc1 and O=C(NCc1ccccc1)[C@H]1CNCC(=O)N1c1ccc(OCCCOCc2ccccc2)cc1 are within 0.2 log units of each other in logP: 3.62 for the first, 3.67 for the second.

Going from COc1ccccc1COCCCOc1ncc(N2C(=O)CNC[C@@H]2C(=O)N(C)Cc2ccccc2)cn1 to COc1ccccc1COCCCOc1ncc(N2C(=O)CNC[C@@H]2C(=O)N(C)CCCc2ccccc2)cn1, the logP rises from 1.8 to 2.34.

Compared with CNCCc1ccc(Cl)c(CN(C(=O)[C@H]2CNCC(=O)N2c2cnc(OCCCOCc3ccccc3OC)nc2)C2CC2)c1, CCNCCc1ccc(Cl)c(CN(C(=O)[C@H]2CNCC(=O)N2c2cnc(OCCCOCc3ccccc3OC)nc2)C2CC2)c1 is higher in logP: 2.95 for the first, 3.3 for the second.

First: COc1ccccc1COCCCOc1ccc(N2C(=O)CNC[C@@H]2C(=O)N(C)CCc2ccccc2)cc1
Second: O=C([C@H]1CNCC(=O)N1c1ccc(OCCCOCc2ccccc2)cc1)N(Cc1ccc(Cl)cc1)C1CC1
The logP of the first is lower: 3.9 for the first, 5.11 for the second.

First: Cc1cccc(CN(C(=O)[C@H]2CNCC(=O)N2c2ccc(CCCOc3c(F)ccc(F)c3F)cc2)C2CC2)c1C
Second: CC(=O)NCCc1ccc(Cl)c(CN(C(=O)[C@H]2CNCC(=O)N2c2ccc(CCCOc3c(F)ccc(F)c3F)cc2)C2CC2)c1
The logP of the first is higher: 5.73 for the first, 5.28 for the second.

First: CN(CCc1ccccc1)C(=O)[C@H]1CNCC(=O)N1c1ccc(CCCOc2c(F)ccc(F)c2F)cc1
Second: CN(CCCc1ccccc1)C(=O)[C@H]1CNCC(=O)N1c1ccc(COC(=O)c2ccccc2)cc1
The logP of the first is higher: 4.57 for the first, 4.02 for the second.

Cc1cc(Cl)c(OCCOc2ccc(N3C(=O)CNC[C@@H]3C(=O)N(Cc3cc(CNC(=O)C4CC4)ccc3Cl)C3CC3)cn2)c(Cl)c1 and CCC(=O)NCc1ccc(Cl)c(CN(C(=O)[C@H]2CNCC(=O)N2c2ccc(OCCOc3c(Cl)cc(C)cc3Cl)nc2)C2CC2)c1 are within 0.2 log units of each other in logP: 4.82 for the first, 4.94 for the second.

O=C(CC(F)(F)F)NCCc1ccc(Cl)c(CN(C(=O)[C@H]2CNCC(=O)N2c2ccc(CCCOc3cccc(Cl)c3)cc2)C2CC2)c1 and O=C(CC(F)(F)F)NCCc1ccc(Cl)c(CN(C(=O)[C@H]2CNCC(=O)N2c2ccc(CCCOc3c(F)ccc(F)c3F)cc2)C2CC2)c1 are within 0.2 log units of each other in logP: 6.18 for the first, 6 for the second.

Compared with Cc1cc(Cl)c(OCCOc2ccc(N3C(=O)CNC[C@@H]3C(=O)N(Cc3cccc(Cl)c3Cl)C3CC3)cn2)c(Cl)c1, Cc1cc(Cl)c(OCCOc2ccc(N3C(=O)CNC[C@@H]3C(=O)N(Cc3cccc(Cl)c3)C3CC3)cn2)c(Cl)c1 is lower in logP: 5.59 for the first, 5.04 for the second.

O=C(Cc1ccc(Cl)c(CN(C(=O)[C@H]2CNCC(=O)N2c2ccc(CCCOc3cccc(Cl)c3)cc2)C2CC2)c1)NC1CC1 and O=C(Cc1ccc(Cl)c(CN(C(=O)[C@H]2CNCC(=O)N2c2ccc(CCCOc3c(F)ccc(F)c3F)cc2)C2CC2)c1)NC1CC1 are within 0.2 log units of each other in logP: 5.98 for the first, 5.8 for the second.

Going from COCCCc1cc(CN(C(=O)[C@H]2CNCC(=O)N2c2ccc(OCCCOCc3ccccc3)cc2)C2CC2)c(Cl)c[n+]1[O-] to COCCCc1cc(CN(C(=O)[C@H]2CNCC(=O)N2c2ccc(COC(=O)c3ccccc3)cc2)C2CC2)c(Cl)c[n+]1[O-], the logP falls from 4.71 to 4.33.

Compared with Cc1cc(Cl)c(OCCOc2ccc(N3C(=O)CNC[C@@H]3C(=O)N(C)CCc3ccccc3)cn2)c(Cl)c1, Cc1cc(Cl)c(OCCOc2ccc(N3C(=O)CNC[C@@H]3C(=O)N(C)CCc3ccccc3)cc2)c(Cl)c1 is higher in logP: 3.85 for the first, 4.68 for the second.

Going from CC(C)(C)OCC(=O)NCCc1ccc(Cl)c(CN(C(=O)[C@H]2CNCC(=O)N2c2ccc(CCCOc3c(F)ccc(F)c3F)cc2)C2CC2)c1 to O=C([C@H]1CNCC(=O)N1c1ccc(CCCOc2c(F)ccc(F)c2F)cc1)N(Cc1cc(CCNCC(F)F)ccc1Cl)C1CC1, the logP falls from 6.28 to 6.05.

Going from CN(Cc1ccccc1)C(=O)[C@H]1CNCC(=O)N1c1ccc(COC(=O)c2ccccc2)cc1 to COC(=O)NCc1ccc(Cl)c(CN(C(=O)[C@H]2CNCC(=O)N2c2ccc(OCCCOCc3ccccc3)cc2)C2CC2)c1, the logP rises from 3.49 to 4.85.

Going from COc1ccccc1COCCCOc1ncc(N2C(=O)CNC[C@@H]2C(=O)N(Cc2cc(CCNC3CC3)ccc2Cl)C2CC2)cn1 to COC(=O)NCc1ccc(Cl)c(CN(C(=O)[C@H]2CNCC(=O)N2c2cnc(OCCCOCc3ccccc3OC)nc2)C2CC2)c1, the logP falls from 3.61 to 2.8.

COc1c(CN(C(=O)[C@H]2CNCC(=O)N2c2ccc(OCCOc3c(Cl)cc(C)cc3Cl)cc2)C2CC2)ccnc1C and Cc1cc(Cl)c(OCCOc2ccc(N3C(=O)CNC[C@@H]3C(=O)NCc3ccccc3)cc2)c(Cl)c1 are within 0.2 log units of each other in logP: 4.22 for the first, 4.39 for the second.

Compared with Cc1cc(Cl)c(OCCOc2ccc(N3C(=O)CNC[C@@H]3C(=O)N(Cc3cc(CCNC(=O)CC(F)(F)F)ccc3Cl)C3CC3)cn2)c(Cl)c1, O=C([C@H]1CNCC(=O)N1c1ccc(CCCOc2c(F)ccc(F)c2F)cc1)N(Cc1cc(CNCCF)ccc1Cl)C1CC1 is higher in logP: 5.28 for the first, 5.66 for the second.
